In patent US20100272825A1, “METHOD OF DISINFECTING CARCASSES” (JOHNSONDIVERSEY, INC., priority 2006, published 2010):
“And” between values parts separate entries of the source, which are not always exact repeats. Equal values may be shown once.

How the values were obtained:
[1] = system: Salmonella typhi, ATCC # 6359; assay: AOAC Chlorine (Available) in Disinfectants, subculture series; type: cell-based; design: key to Subculture Series 1, growth / Subculture Series 10, growth / Subculture Series 2, growth / Subculture Series 3, growth / Subculture Series 4, growth / Subculture Series 5, growth / Subculture Series 6, growth / Subculture Series 7, growth / Subculture Series 8, growth / Subculture Series 9, growth: + = growth; − = no growth
Procedure: (§1) The invention will be further appreciated in light of the following detailed examples. In these examples, a chlorine dioxide solution was obtained by forming chlorous acid from an ion exchange resin, running this through a platinum catalyst to form chlorine dioxide. The chlorine dioxide obtained from the ion exchange resin catalyst combination was generally at about 650-750 ppm at a pH of about 2, which was then diluted with an acid solution of sodium bisulfate to reach the desired use concentration as set forth in the examples.

[2] = system: Salmonella typhi, ATCC # 6539; assay: Sanitizing effectiveness: modified Germicidal and Detergent Sanitizing Action of Disinfectants, A.O.A.C.; type: cell-based; conditions: 1 ppm Chlorine Dioxide; for Survivors: initial 116,000,000 org/ml
Procedure: as §1

[3] = pH 2.0, contact 10 seconds 25° C.
[4] = pH 2.5, contact 10 seconds 25° C.
[5] = pH 3.0, contact 10 seconds 25° C.
[6] = pH 3.5, contact 10 seconds 25° C.
[7] = pH 4.0, contact 10 seconds 25° C.

[O][Cl+][O-] [Chlorine Dioxide, chlorine dioxide]
germicidal efficacy expressed as equivalent concentration of sodium hypochlorite ([1]; 15 ppm of ClO2 at pH 2.5): 200 ppm | germicidal efficacy expressed as equivalent concentration of sodium hypochlorite ([1]; 15 ppm of ClO2 at pH 3.75): > 100 ppm and < 200 ppm | Subculture Series 1, growth ([1]; ClO2 12 ppm, pH = 2.50): − | Subculture Series 2, growth ([1]; ClO2 12 ppm, pH = 2.50): − | Subculture Series 3, growth ([1]; ClO2 12 ppm, pH = 2.50): − | Subculture Series 4, growth ([1]; ClO2 12 ppm, pH = 2.50): − | Subculture Series 5, growth ([1]; ClO2 12 ppm, pH = 2.50): + | Subculture Series 6, growth ([1]; ClO2 12 ppm, pH = 2.50): + | Subculture Series 7, growth ([1]; ClO2 12 ppm, pH = 2.50): + | Subculture Series 8, growth ([1]; ClO2 12 ppm, pH = 2.50): + | Subculture Series 9, growth ([1]; ClO2 12 ppm, pH = 2.50): + | Subculture Series 10, growth ([1]; ClO2 12 ppm, pH = 2.50): + | Subculture Series 1, growth ([1]; ClO2 12 ppm, pH = 3.82): − | Subculture Series 2, growth ([1]; ClO2 12 ppm, pH = 3.82): − | Subculture Series 3, growth ([1]; ClO2 12 ppm, pH = 3.82): + | Subculture Series 4, growth ([1]; ClO2 12 ppm, pH = 3.82): + | Subculture Series 5, growth ([1]; ClO2 12 ppm, pH = 3.82): + | Subculture Series 6, growth ([1]; ClO2 12 ppm, pH = 3.82): + | Subculture Series 7, growth ([1]; ClO2 12 ppm, pH = 3.82): + | Subculture Series 8, growth ([1]; ClO2 12 ppm, pH = 3.82): + | Subculture Series 9, growth ([1]; ClO2 12 ppm, pH = 3.82): + | Subculture Series 10, growth ([1]; ClO2 12 ppm, pH = 3.82): + | Subculture Series 1, growth ([1]; ClO2 15 ppm, pH = 2.50): − | Subculture Series 2, growth ([1]; ClO2 15 ppm, pH = 2.50): − | Subculture Series 3, growth ([1]; ClO2 15 ppm, pH = 2.50): − | Subculture Series 4, growth ([1]; ClO2 15 ppm, pH = 2.50): − | Subculture Series 5, growth ([1]; ClO2 15 ppm, pH = 2.50): − | Subculture Series 6, growth ([1]; ClO2 15 ppm, pH = 2.50): − | Subculture Series 7, growth ([1]; ClO2 15 ppm, pH = 2.50): − | Subculture Series 8, growth ([1]; ClO2 15 ppm, pH = 2.50): − | Subculture Series 9, growth ([1]; ClO2 15 ppm, pH = 2.50): + | Subculture Series 10, growth ([1]; ClO2 15 ppm, pH = 2.50): + | Subculture Series 1, growth ([1]; ClO2 15 ppm, pH = 3.75): − | Subculture Series 2, growth ([1]; ClO2 15 ppm, pH = 3.75): − | Subculture Series 3, growth ([1]; ClO2 15 ppm, pH = 3.75): − | Subculture Series 4, growth ([1]; ClO2 15 ppm, pH = 3.75): − | Subculture Series 5, growth ([1]; ClO2 15 ppm, pH = 3.75): − | Subculture Series 6, growth ([1]; ClO2 15 ppm, pH = 3.75): + | Subculture Series 7, growth ([1]; ClO2 15 ppm, pH = 3.75): + | Subculture Series 8, growth ([1]; ClO2 15 ppm, pH = 3.75): + | Subculture Series 9, growth ([1]; ClO2 15 ppm, pH = 3.75): + | Subculture Series 10, growth ([1]; ClO2 15 ppm, pH = 3.75): + | % Reduction [2, 3]: 99.103% | Survivors [2, 3]: 1,040,000 | % Reduction [2, 4]: 99.207% | Survivors [2, 4]: 920,000 | % Reduction [2, 5]: <97.845% | Survivors [2, 5]: >2,500,000 | % Reduction [2, 6]: <97.845% | Survivors [2, 6]: >2,500,000 | % Reduction [2, 7]: <97.845% | Survivors [2, 7]: >2,500,000

[Na+].[O-]Cl [NaOCl, sodium hypochlorite, reference compound]
Subculture Series 1, growth ([1]; NaOCl 50 ppm): − | Subculture Series 2, growth ([1]; NaOCl 50 ppm): + | Subculture Series 3, growth ([1]; NaOCl 50 ppm): + | Subculture Series 4, growth ([1]; NaOCl 50 ppm): + | Subculture Series 5, growth ([1]; NaOCl 50 ppm): + | Subculture Series 1, growth ([1]; NaOCl 100 ppm): − | Subculture Series 2, growth ([1]; NaOCl 100 ppm): − | Subculture Series 3, growth ([1]; NaOCl 100 ppm): − | Subculture Series 4, growth ([1]; NaOCl 100 ppm): − | Subculture Series 5, growth ([1]; NaOCl 100 ppm): + | Subculture Series 6, growth ([1]; NaOCl 100 ppm): + | Subculture Series 7, growth ([1]; NaOCl 100 ppm): + | Subculture Series 8, growth ([1]; NaOCl 100 ppm): + | Subculture Series 9, growth ([1]; NaOCl 100 ppm): + | Subculture Series 10, growth ([1]; NaOCl 100 ppm): + | Subculture Series 1, growth ([1]; NaOCl 200 ppm): − | Subculture Series 2, growth ([1]; NaOCl 200 ppm): − | Subculture Series 3, growth ([1]; NaOCl 200 ppm): − | Subculture Series 4, growth ([1]; NaOCl 200 ppm): − | Subculture Series 5, growth ([1]; NaOCl 200 ppm): − | Subculture Series 6, growth ([1]; NaOCl 200 ppm): − | Subculture Series 7, growth ([1]; NaOCl 200 ppm): − | Subculture Series 8, growth ([1]; NaOCl 200 ppm): + | Subculture Series 9, growth ([1]; NaOCl 200 ppm): + | Subculture Series 10, growth ([1]; NaOCl 200 ppm): +
